Laboratory results from ChEMBL document CHEMBL4330060, “Design and development of some phenyl benzoxazole derivatives as a potent acetylcholinesterase inhibitor with antioxidant property to enhance learning and memory” (Eur J Med Chem, 2019).
Active and inactive are the calls of the source. No cut-off for these calls is given here.

Experiments:
[1] = Effective permeability of the compound by PAMPA; assay type: ADME; details: read-out: Peff
[2] = in vitro; details: PAMPA, pH 7.4
Description: Effective permeability of the compound at pH 7.4 after 18 hrs by PAMPA-BBB assay

[3] = Antioxidant activity assessed as DPPH radical scavenging activity at 10 uM after 30 mins under dark condition relative to control; assay type: functional
[4] = Selectivity index, ratio of IC50 for human serum BChE to IC50 for Electric eel AChE
[5] = biological target: Cholinesterase (Homo sapiens, UniProt P06276); experiment: Inhibition of human serum BChE using butyrylthiocholine iodide as substrate after 10 mins measured for every mins by Ellman's method
Chain of Cholinesterase (P06276 whole entry): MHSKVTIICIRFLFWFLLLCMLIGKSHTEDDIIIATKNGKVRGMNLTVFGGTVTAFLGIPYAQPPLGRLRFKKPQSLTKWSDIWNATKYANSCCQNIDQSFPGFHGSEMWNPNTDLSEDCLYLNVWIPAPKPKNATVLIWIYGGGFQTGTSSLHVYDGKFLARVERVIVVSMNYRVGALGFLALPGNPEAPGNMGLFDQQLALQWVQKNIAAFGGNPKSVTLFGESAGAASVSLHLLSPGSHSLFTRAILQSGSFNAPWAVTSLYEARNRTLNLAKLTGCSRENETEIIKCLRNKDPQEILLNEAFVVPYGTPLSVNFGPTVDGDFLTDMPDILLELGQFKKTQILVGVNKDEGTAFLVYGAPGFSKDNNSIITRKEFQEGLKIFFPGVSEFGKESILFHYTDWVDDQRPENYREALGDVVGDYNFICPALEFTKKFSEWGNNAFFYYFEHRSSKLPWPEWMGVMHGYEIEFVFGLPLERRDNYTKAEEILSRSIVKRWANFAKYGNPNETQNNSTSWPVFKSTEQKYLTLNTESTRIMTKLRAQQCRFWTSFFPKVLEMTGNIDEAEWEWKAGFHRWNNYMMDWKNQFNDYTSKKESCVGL

[6] = biological target: T1, Acetylcholinesterase (Electrophorus electricus, UniProt O42275); experiment: Inhibition of Electric eel AChE using acetylthiocholine iodide as substrate after 10 mins measured for every mins by Ellman's method
T1 sequence (O42275 whole entry): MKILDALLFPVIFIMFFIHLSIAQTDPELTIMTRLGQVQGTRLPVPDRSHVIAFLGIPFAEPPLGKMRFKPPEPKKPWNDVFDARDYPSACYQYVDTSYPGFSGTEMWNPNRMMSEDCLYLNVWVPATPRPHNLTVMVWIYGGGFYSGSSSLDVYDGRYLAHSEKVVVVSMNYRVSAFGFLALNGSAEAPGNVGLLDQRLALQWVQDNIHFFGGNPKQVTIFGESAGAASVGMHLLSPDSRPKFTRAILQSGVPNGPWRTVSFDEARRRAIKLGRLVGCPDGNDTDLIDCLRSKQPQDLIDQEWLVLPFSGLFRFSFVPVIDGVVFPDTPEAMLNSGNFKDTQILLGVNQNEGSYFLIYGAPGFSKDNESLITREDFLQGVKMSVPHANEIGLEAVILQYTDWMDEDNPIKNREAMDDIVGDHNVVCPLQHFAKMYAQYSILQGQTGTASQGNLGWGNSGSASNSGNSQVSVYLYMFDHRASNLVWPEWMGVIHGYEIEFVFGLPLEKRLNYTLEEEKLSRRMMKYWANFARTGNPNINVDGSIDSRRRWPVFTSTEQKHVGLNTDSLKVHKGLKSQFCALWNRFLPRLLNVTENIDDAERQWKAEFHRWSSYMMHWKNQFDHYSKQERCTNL

[7] = tested on: Mus musculus; experiment: Cognitive enhancing effect in Swiss albino mouse assessed as reversal of scopolamine-induced reduction in spontaneous alteration score at 1 mg/kg, ip qd pretreated for 1 hr followed by scopolamine addition by Y-maze test; assay type: functional, organism-based
[8] = tested on: Mus musculus; experiment: Memory enhancing effect in Swiss albino mouse assessed as reversal of scopolamine-induced reduction in latency time at 1 mg/kg, ip qd pretreated for 1 hr followed by scopolamine addition by passive avoidance test; assay type: functional, organism-based
[9] = Neurotoxicity in Swiss albino mouse assessed as motor coordination by measuring fall off time at 5 mg/kg, po after 1 hr by rota rod test (reference value: 310.61 +/- 26.64 sec); assay type: toxicity, organism-based; details: in vivo
[10] = tested on: Mus musculus; experiment: Memory enhancing effect in Swiss albino mouse assessed as reversal of scopolamine-induced reduction in latency time at 5 mg/kg, ip qd pretreated for 1 hr followed by scopolamine addition by passive avoidance test; assay type: functional, organism-based
[11] = tested on: Mus musculus; experiment: In vivo antioxidant activity in Swiss albino mouse brain assessed as increase in catalase activity by measuring decrease in H2O2 level at 5 mg/kg, ip qd pretreated for 1 hr followed by scopolamine addition; assay type: functional, organism-based
[12] = tested on: Mus musculus; experiment: Ex vivo inhibition of AChE in Swiss albino mouse brain at 5 mg/kg, ip qd pretreated for 1 hr followed by scopolamine addition using acetylthiocholine iodide as substrate by Ellman's method; assay type: functional, organism-based
[13] = tested on: Mus musculus; experiment: In vivo antioxidant activity in Swiss albino mouse brain assessed as increase in GSH level at 5 mg/kg, ip qd pretreated for 1 hr followed by scopolamine addition; assay type: functional, organism-based
[14] = tested on: Mus musculus; experiment: Cognitive enhancing effect in Swiss albino mouse assessed as reversal of scopolamine-induced reduction in spontaneous alteration score at 5 mg/kg, ip qd pretreated for 1 hr followed by scopolamine addition by Y-maze test; assay type: functional, organism-based
[15] = Acute toxicity in Swiss albino mouse up to 100 mg/kg, po measured until 14 days; assay type: organism-based; details: in vivo, 336 h
[16] = biological target: Acetylcholinesterase (Homo sapiens) (UniProt P22303); experiment: Displacement of Propidium iodide from PAS region of AChE (unknown origin) after 20 hrs by fluorescence assay relative to control; details: concentration not given here
Chain of Acetylcholinesterase (Homo sapiens) (P22303 whole entry): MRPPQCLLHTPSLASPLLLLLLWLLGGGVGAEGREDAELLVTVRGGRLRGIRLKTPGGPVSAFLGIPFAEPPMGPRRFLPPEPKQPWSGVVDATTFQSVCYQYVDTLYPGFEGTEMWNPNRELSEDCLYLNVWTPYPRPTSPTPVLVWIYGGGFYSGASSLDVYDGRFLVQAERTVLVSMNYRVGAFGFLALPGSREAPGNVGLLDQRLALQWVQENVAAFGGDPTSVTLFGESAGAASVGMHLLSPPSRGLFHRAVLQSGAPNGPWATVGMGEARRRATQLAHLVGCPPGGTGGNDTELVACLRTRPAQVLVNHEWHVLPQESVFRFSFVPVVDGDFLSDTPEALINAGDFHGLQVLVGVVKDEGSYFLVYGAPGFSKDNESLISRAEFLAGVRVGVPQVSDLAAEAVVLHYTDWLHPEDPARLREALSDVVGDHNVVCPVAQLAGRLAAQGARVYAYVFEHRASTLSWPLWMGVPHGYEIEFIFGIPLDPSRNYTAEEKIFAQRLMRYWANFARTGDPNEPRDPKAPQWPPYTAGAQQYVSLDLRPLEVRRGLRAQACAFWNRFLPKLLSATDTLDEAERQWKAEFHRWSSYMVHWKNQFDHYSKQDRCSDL

[17] = tested on: Mus musculus; experiment: Cognitive enhancing effect in Swiss albino mouse assessed as reversal of scopolamine-induced anxiety by measuring increase in number of novel arm entries at 1 to 20 mg/kg, ip qd pretreated for 1 hr followed by scopolamine addition by Y-maze test; assay type: functional, organism-based
[18] = Acute toxicity in Swiss albino mouse assessed as abnormal behavior at 100 mg/kg, po measured at 14 days post administration; assay type: organism-based; details: in vivo, 336 h
[19] = tested on: Mus musculus; experiment: Cognitive enhancing effect in Swiss albino mouse assessed as reversal of scopolamine-induced cainophobia behavior by measuring increase in number of novel arm entries at 1 to 20 mg/kg, ip qd pretreated for 1 hr followed by scopolamine addition by Y-maze test; assay type: functional, organism-based
[20] = Acute toxicity in Swiss albino mouse assessed as mortality at 100 mg/kg, po measured at 14 days post administration; assay type: organism-based; details: in vivo, 336 h
[21] = tested on: Mus musculus; experiment: In vivo antioxidant activity in Swiss albino mouse brain assessed as increase in SOD level at 5 mg/kg, ip qd pretreated for 1 hr followed by scopolamine addition measured every 30 secs interval for 2 mins; assay type: functional, organism-based
[22] = tested on: Mus musculus; experiment: In vivo antioxidant activity in Swiss albino mouse brain assessed as decrease in MDA level at 5 mg/kg, ip qd pretreated for 1 hr followed by scopolamine addition by TBARS assay; assay type: functional, organism-based
[23] = biological target: T1, Acetylcholinesterase; experiment: Inhibition of Electric eel AChE using acetylthiocholine iodide as substrate after 10 mins measured for every mins by Lineweaver-Burk plot analysis
[24] = tested on: Mus musculus; experiment: In vivo antioxidant activity in Swiss albino mouse brain assessed as decrease in nitric oxide level at 5 mg/kg, ip qd pretreated for 1 hr followed by scopolamine addition by Griess reagent based assay; assay type: functional, organism-based

SMILES	Activity [3] [%]	IC50 [5] [µM]	IC50 [6] [µM]	other results
Cc1nnc2n1-c1ccc(Cl)cc1C(c1ccccc1)=NC2 [ALPRAZOLAM]	–	–	–	Papp [1]: 5.4 ×10⁻⁶ cm/s; Papp at 18 h [2]: 4.2 ×10⁻⁶ cm/s
O=C1O[C@H]([C@@H](O)CO)C(O)=C1O	56.6	–	–	–
Oc1ccc(/C=N/c2ccc(-c3nc4ccccc4o3)cc2)cc1	31.8	27	0.94	Ratio IC50 [4]: 28.7
COc1cc2c(cc1OC)C(=O)C(CC1CCN(Cc3ccccc3)CC1)C2 (stereo unspecified) [DONEPEZIL]	< 10	–	–	Activity [7]: Active; Activity [8]: Active; Time [9]: 167.75 s
Brc1ccc(/C=N/c2ccc(-c3nc4ccccc4o3)cc2)cc1	< 10	> 50	37.3	–
O=[N+]([O-])c1ccc(/C=N/c2ccc(-c3nc4ccccc4o3)cc2)cc1	< 10	> 50	1.79	–
S=C(Nc1ccccc1)Nc1ccc(-c2nc3ccccc3o2)cc1	45.3	> 50	> 50	–
CC(C)c1ccc(NCC(O)CNc2ccc(-c3nc4ccccc4o3)cc2)cc1 (stereo unspecified)	39.1	> 50	8.02	Activity [10]: Active
CC(C)c1ccc(/C=N/c2ccc(-c3nc4ccccc4o3)cc2)cc1	< 10	> 50	> 50	–
S=C(Nc1ccc(Cl)cc1)Nc1ccc(-c2nc3ccccc3o2)cc1	40	> 50	12.6	–
O=[N+]([O-])c1ccc(NC(=S)Nc2ccc(-c3nc4ccccc4o3)cc2)cc1	45.9	> 50	9.43	–
CC(C)c1ccc(NC(=S)Nc2ccc(-c3nc4ccccc4o3)cc2)cc1	42.3	> 50	> 50	–
Oc1ccc(NC(=S)Nc2ccc(-c3nc4ccccc4o3)cc2)cc1	50.2	27.4	0.882	Ratio IC50 [4]: 31
c1ccc(CNc2ccc(-c3nc4ccccc4o3)cc2)cc1	24.1	> 50	7.21	–
O=[N+]([O-])c1ccc(NCC(O)CNc2ccc(-c3nc4ccccc4o3)cc2)cc1 (stereo unspecified)	44.4	> 50	1.15	–
Brc1ccc(CNc2ccc(-c3nc4ccccc4o3)cc2)cc1	18.5	> 50	8.44	–
OC(CNc1ccc(Cl)cc1)CNc1ccc(-c2nc3ccccc3o2)cc1 (stereo unspecified)	49.6	2.29	0.363	Activity [11]: Active; inhibition [12]: Active; Activity [13]: Active; Ratio IC50 [4]: 6.3; Activity [14]: Active; Activity [7]: inactive; Activity [15]: Non-Toxic; inhibition [16]: 11.2%; Activity [17]: Active; Activity [18]: Non-Toxic; Activity [19]: Active; Activity [20]: Non-Toxic; Activity [21]: Active; Activity [22]: Active; Time [9]: 298.75 s; Papp at 18 h [2]: 4.55 ×10⁻⁶ cm/s; Ki [23]: 0.19 µM; Activity [24]: Active
CC(C)c1ccc(CNc2ccc(-c3nc4ccccc4o3)cc2)cc1	27.5	> 50	> 50	–
O=[N+]([O-])c1ccc(CNc2ccc(-c3nc4ccccc4o3)cc2)cc1	22.7	> 50	24.2	–
Clc1ccc(CNc2ccc(-c3nc4ccccc4o3)cc2)cc1	25.1	> 50	6.3	–
C(=N\c1ccc(-c2nc3ccccc3o2)cc1)/c1ccccc1	< 10	> 50	> 50	–
S=C(Nc1ccc(Br)cc1)Nc1ccc(-c2nc3ccccc3o2)cc1	43.1	> 50	8.72	–
Oc1ccc(NCC(O)CNc2ccc(-c3nc4ccccc4o3)cc2)cc1 (stereo unspecified)	50	2.74	0.807	Ratio IC50 [4]: 3.4
CN(C)C(=O)Oc1ccccc1-c1nc2ccccc2o1	–	–	58.2	–
O=c1ccc2ccc(OCCCCCSc3nc4ccccc4o3)cc2o1	–	–	25.4	–
Clc1ccc(/C=N/c2ccc(-c3nc4ccccc4o3)cc2)cc1	< 10	> 50	2.27	–
OC(CNc1ccc(Br)cc1)CNc1ccc(-c2nc3ccccc3o2)cc1 (stereo unspecified)	42.4	> 50	1.31	–
Oc1ccc(CNc2ccc(-c3nc4ccccc4o3)cc2)cc1	39.4	4.71	0.723	Ratio IC50 [4]: 6.5
OC(CNc1ccccc1)CNc1ccc(-c2nc3ccccc3o2)cc1 (stereo unspecified)	48.2	3.54	0.842	Ratio IC50 [4]: 4.2
O=c1cc(-c2ccccc2)c2ccc(NCCCSc3nc4ccccc4o3)cc2o1	–	–	13	–
